Reference: PMC11181322, “Copper(II) Complexes with Isomeric Morpholine-Substituted 2-Formylpyridine Thiosemicarbazone Hybrids as Potential Anticancer Drugs Inhibiting Both Ribonucleotide Reductase and Tubulin Polymerization: The Morpholine Position Matters” (Journal of Medicinal Chemistry, 2024)

Assays:
[1] = set-up: method as in PMID 32336116; details: copper(II) complexes of the named TSCs, measured under similar conditions ref 67; cited from earlier work
tubulin = experiment: Inhibition of [3H]colchicine binding to tubulin; details: for inhibition of colchicine binding % inhibition ± SD: tubulin 0.5 μM, colchicine 5 μM
purified tubulin = experiment: Inhibition of polymerization of purified tubulin; format: biochemical; details: read-out: inhibition of tubulin IC50 ± SD
MES-SA cells = experiment: Fluorescent protein-based cytotoxicity assay, MES-SA; format: cell-based, human; details: 120 h, ± SD, n = 3
Text: (§1) The cytotoxic activity of proligands H2L^3–H2L^6 and their copper(II) complexes 3–6 was investigated in the MES-SA (human uterine sarcoma) and in its MDR counterpart (MES-SA/Dx5) cell lines by a fluorescent protein-based assay.[73]
(§2) The human uterine sarcoma cell lines MES-SA and the doxorubicin selected MES-SA-Dx5 were obtained from ATCC (MES-SA: No. CRL-1976, MES-SA/Dx5: No. CRL-1977) and were used for the intracellular ROS generation studies. For cytotoxicity, we used the fluorescent cell lines MES-SA mCherry and MES-SA/Dx5 eGFP, which were created by lentiviral transductions of the respective genes.[73] The phenotype of the resistant cells was maintained by 500 nM doxorubicin treatment a week before use and was verified using cytotoxicity assays. Cells were cultivated at 37 °C, 5% CO2 in Dulbecco’s modified Eagle's Medium (DMEM, Sigma-Aldrich), supplemented with 10% fetal bovine serum, 5 mM glutamine, and 50 unit/mL penicillin and streptomycin (Thermo Fisher).
(§3) MES-SA mCherry and MES-SA/Dx5 eGFP cell suspensions were seeded after trypsinization at 2500 cells/20 μL density on 384-well plates, containing 20 μL of completed medium. The next day, serial dilution of the compounds was prepared and added in an additional 20 μL, with or without 0.4 μM Tariquidar. Liquid handling steps were performed by a Hamilton StarLet robot. […] The mean and standard deviation of the pIC50 values were calculated and converted to IC50 values.

MES-SA/Dx5 cells = experiment: Fluorescent protein-based cytotoxicity assay, MES-SA/Dx5; format: cell-based, human; details: for IC50: 120 h, ± SD, n = 3; for SR, selectivity ratio IC50 (MES-SA)/IC50 (MES-SA/Dx5): in the absence of TQ
Text: as §1, §2, §3

[2] = Cyclic voltammetry of copper(II) complexes in DMSO/n-Bu4NPF6; format: physicochemical
Method: The redox properties of the copper(II) complexes 3–6 were investigated by electrochemical, EPR, and UV–vis spectroelectrochemical measurements. […] While the half-wave reduction potentials E1/2^red for complexes 3–5 were almost the same (−0.82 V vs Fc^+/Fc), the E1/2^red for 6 is by 0.07 V more positive (−0.75 V vs Fc^+/Fc), as summarized in Table 4. The corresponding proligands are not redox active in the cathodic part (not shown).
Cyclic voltammetric experiments with 0.5 mM solutions of copper(II) complexes 3–6 in 0.1 M nBu4NPF6 (puriss quality from Fluka; dried under reduced pressure at 70 °C for 24 h before use) as supporting electrolyte in DMSO (SeccoSolv max. 0.025% H2O, Merck) were performed under Ar using a three-electrode arrangement with Pt wire as the counter electrode and Ag wire as the pseudoreference electrode. Glassy carbon or Pt wire served as the working electrode. Ferrocene purchased from Sigma-Aldrich was used as the internal potential standard without further purification. All potentials in voltammetric studies were quoted vs ferricenium/ferrocene (Fc^+/Fc) as the redox couple. A Heka PG310USB (Lambrecht, Germany) potentiostat with a PotMaster 2.73 software package served for the potential control in voltammetric studies. In situ ultraviolet–visible-near-infrared (UV–vis–NIR) spectroelectrochemical measurements were performed on a spectrometer (Avantes, Model AvaSpec-2048 × 14-USB2 in the spectroelectrochemical cell kit ([…]3) with the Pt-microstructured honeycomb working electrode, purchased from Pine Research Instrumentation. The cell was positioned in the CUV-UV Cuvette Holder (Ocean Optics) connected to the diode array UV–vis-NIR spectrometer by optical fibers. UV–vis-NIR spectra were processed using the AvaSoft 7.7 software package. Halogen and deuterium lamps were used as light sources (Avantes, Model AvaLight-DH-S-BAL).

[3] = Conditional stability constants of the copper(II) complexes by EDTA displacement (UV–vis); format: physicochemical
Method: The stability constants of 3–6 were determined by EDTA competition experiments monitored by UV–vis spectrophotometry at pH 5.9, where the [Cu(HL)]^+ species is dominant. Since the displacement of the TSC ligand by EDTA is relatively slow, a 2 h reaction time was used to reach equilibrium. Upon increasing the concentration of EDTA, the absorbance of the characteristic S → Cu charge transfer band at 400–416 nm decreased (see, for example, Figure 3 for the copper(II)–H2L^4 (1:1) system).[68] The experiments were performed in both aqueous solution and the 30% (v/v) DMSO/H2O solvent mixture. The determined conditional (apparent) formation constants (log K′5.9) are rather similar (see Table 2) in both media. However, the values are lower in the DMSO/H2O solvent mixture than in aqueous solution, presumably due to coordination of DMSO to copper(II). An analogous observation was reported for the copper(II) complex of Triapine.[67] […] To compare the copper(II) binding ability of the studied TSCs H2L^3–H2L^6 at pH 5.9 (at which the conditional constants were determined), pCu (−log [Cu(II)]) values were also computed using the experimentally determined equilibrium constants (Table 2). The higher pCu value indicates a stronger metal ion binding ability of the ligand under given circumstances. The ligands form complexes with fairly similar stability, in agreement with the conditional stability constants. […] A similar behavior was reported for aqueous solutions of the N-terminally dimethylated derivative of the 2-pyridinecarboxaldehyde TSC (PTSC)[69] and for the corresponding morpholine-hybrid Morph-dm-FTSC.[52] In particular, the calculated pCu values were also very close, 13.17 for PTSC vs 13.08 for Morph-dm-FTSC calculated at pH 7.4.
The path length was 1 cm.

[4] = Redox reaction of the copper(II) complexes with GSH (UV–vis, anoxic); format: physicochemical; details: pH 7.4 (50 mM HEPES); ccomplex = 25 μM; cGSH = 1.25 mM; pure water; 25 °C
Text: The direct reduction of the copper(II) complexes with the antioxidant GSH was investigated in anoxic aqueous solution at pH 7.4 by UV–vis spectrophotometry. At this pH, the complex [Cu(HL)]^+ is assumed to predominate according to the speciation studies (vide supra). The spectral changes were monitored in the wavelength range 250–550 nm by using a large excess of GSH (50 equiv). In this wavelength range, the spectral changes are due to the absorption of the metal complex and the ligand.
These changes imply that, after reduction in the presence of excess GSH, the generated copper(I) complex is not stable and liberates the free TSC ligand. […] The time-dependent absorbance changes are shown for all the studied systems in Figure 4b. The observed rate constants (kobs) were calculated (Table 2) as a semiquantitative description of the reaction kinetics. […] The obtained kobs values fall into the range for Triapine (0.10 min^–1), 2-pyridinecarboxaldehyde TSC (0.041 min^–1), and N-monomethylated N-methyl-Triapine (0.077 min^–1), measured under similar conditions.[67] To find out whether this slightly different kinetics for 6 and 3–5 is in accordance with their reduction potentials, cyclic voltammetry was performed.
The redox reaction of the copper(II) complexes with GSH and ascorbic acid was studied at 25.0 ± 0.1 °C on a Hewlett-Packard 8452A diode array spectrophotometer using a special, tightly closed tandem cuvette (Hellma Tandem Cell, 238-QS). The reactants were separated until the reaction was triggered. Both isolated pockets of the cuvette were completely deoxygenated by bubbling a stream of Ar for 10 min before mixing the reactants. Spectra were recorded before and then immediately after the mixing, and changes were followed until no further absorbance change was observed. One of the isolated pockets contained the reducing agent, and the other contained the complex. Their final concentrations were 1250 and 25 μM, respectively. The pH of all the solutions was adjusted to 7.40 by 50 mM HEPES buffer. The ionic strength of the solution was 0.1 M (KCl). The stock solutions of the reducing agents and the complexes were freshly prepared every day. During the calculations, the absorbance (A) – time (t) curves were fitted and analyzed at the λmax of the complex. (A0 – Afinal) × e^(−a×t) + Afinal was the fitting equation used, where the A0, Afinal, and a parameters were refined and accepted at the minimal value of the weighted sum of squared residuals (difference between the measured and calculated absorbance values) at the given wavelength. Then, observed rate constants (kobs) of the redox reaction were obtained from the data points of the simulated absorbance–time curves as the slope of the ln(A/A0) vs time plots.

NC(=S)N/N=C/c1ccccn1 [2-pyridinecarboxaldehyde TSC]
kobs, reduction by GSH [1]: 0.041 min^–1

COc1ccc(/C=C\c2cc(OC)c(OC)c(OC)c2)cc1O [C-A4, Combretastatin A-4, reference compound]
inhibition of colchicine binding % inhibition ± SD (tubulin; 0.5 μM inhibitor): 85 ± 2%

COc1cccc2c1C(=O)c1c(O)c3c(c(O)c1C2=O)C[C@@](O)(C(=O)CO)C[C@@H]3O[C@H]1C[C@H](N)[C@H](O)[C@H](C)O1 [Doxorubicin, reference compound]
IC50 (MES-SA cells; Homo sapiens, MES-SA): 0.04 ± 0.01 µM
IC50 (MES-SA/Dx5 cells; Homo sapiens, MES-SA/Dx5): 1.9 ± 0.6 µM
SR, selectivity ratio IC50 (MES-SA)/IC50 (MES-SA/Dx5) (MES-SA/Dx5 cells): 0.02

Cc1cc(NC(=NN=Cc2ncccc2CN2CCOCC2)[S][Cu][Cl])cc(C)c1O [complex 3, [Cu(HL^3)Cl]·H2O]
Epa^1 ([2]; first anodic peak potential vs Fc+/Fc, 100 mV s^–1): +0.27 V
Epa^2 ([2]; second anodic peak potential vs Fc+/Fc, 100 mV s^–1): +0.79 V
E1/2^red ([2]; vs Fc+/Fc, scan rate 100 mV s^–1): –0.83 V
inhibition of colchicine binding % inhibition ± SD (tubulin; 5 μM inhibitor): 22 ± 2%
inhibition of colchicine binding % inhibition ± SD (tubulin; 25 μM inhibitor): 40 ± 3%
fold less potent than CA-4 in inhibiting [3H]colchicine binding (tubulin; at the 5 μM concentration): 4.5 fold
IC50 (MES-SA cells): 15 ± 3 µM
IC50 (purified tubulin): 7 ± 0.3 µM
logK′5.9 (DMSO/H2O) ([3]; EDTA displacement, UV–vis, pH 5.9, 30% (v/v) DMSO/H2O, 25 °C): 10.33 ± 0.01
logK′5.9 (H2O) ([3]; EDTA displacement, UV–vis, pH 5.9, water, I = 0.1 M (KCl), 25 °C): 13.82 ± 0.04
pCu5.9 (=–log[Cu(II)]) ([3]; calcd. at pH 5.9, cL = cCu(II) = 1 μM): 8.20
IC50 (MES-SA/Dx5 cells): 5.5 ± 0.6 µM
SR, selectivity ratio IC50 (MES-SA)/IC50 (MES-SA/Dx5) (MES-SA/Dx5 cells): 2.76
kobs, redox reaction with GSH [4]: 0.059 ± 0.004 min^–1
